The source of these data is US20180085452A1, “MATRIX-EMBEDDED TOLERANCE-PROMOTING ADJUVANTS FOR SUBCUTANEOUS IMMUNOTHERAPY” (Tolerogenics S.a.r.l,, priority 2016, published 2018).

In brackets after ≈: the same amount, converted by molar mass. Several values for one entry are separate records, joined by “and”; a condition that tells them apart may be missing. Identical values can stand only once. Entries after “also recorded” stand apart in the source; their conditions may differ. Like-named read-outs stand apart in the source and are kept apart here.

For data set [1] the following is noted: during the first 24 hours; EP14075015.9; cited from earlier work.
The conditions of data set [2]: cited from earlier work.
The test system of data set [3] is phagocytes. To be noted: approximately a threefold increase; cited from earlier work.
Data set [4] can be described thus: in vitro release of DexP from PLGA-PEG-PLGA hydrogel. In kind it is physicochemical. The note with it: 37° C., PBS. Here is the method:
A 20 mM stock solution of DexP in PBS (10.3 mg/ml; MW 516.4; Sigma-Aldrich) is diluted 1:40 in PBS (final concentration: 0.5 mM), and 20 μl of the diluted stock solution is combined with 160 μl of 25% gel solution and 20 μl of 10× PBS (final concentration of DexP: 0.05 mM).
The mixture of is incubated for 2 minutes at 37° C. to induce gelling and overlayed with 200 μl of 1× PBS. At frequent time points the supernatant is removed by pipetting and stored at 4° C. The removed supernatant is replaced by fresh 200 μl of 1× PBS. Controls of the same concentration of DexP in 1× PBS without gel are incubated and sampled in parallel.
Released DexP is determined with a spectrophotometric method (Singh and Verma, 2008). The method involves oxidation of the corticosteroid by iron (III) and subsequent complexation of iron (II) with potassium hexacynoferate (III), forming a bluish green coloured complex with maximum absorbance at 780 nm (Beer's law range: 10-50 μg/ml; molar absorptivity (M^−1cm^−1): for DexP 0.55×10^4).

Data set [5] deals with rheumatoid arthritis. Also noted: patients going into remission: dose or concentration left out as unconfirmed. To be noted: on methotrexate therapy, cited from earlier work.
For data set [6] the following is noted: rodents; cited from earlier work.
The conditions of data set [7]: cited from earlier work. This is another data set of the same source.
For data set [8] the following is noted: cited from earlier work. The source holds these as a separate data set.
Data set [9] deals with calcium metabolism. The note with it: in vivo studies in rats; cited from earlier work.
In data set [10] the test system is rats. The note with it: cited from earlier work.
The conditions of data set [11]: cited from earlier work. The source holds these as a separate data set.
The conditions of data set [12]: cited from earlier work. The source holds these as a separate data set.
The test system of data set [13] is mice. To be noted: cited from earlier work.
Data set [14] deals with experimental autoimmune encephalomyelitis (EAE). The note with it: i.p. 5 μg/kg body weight every 2 days; cited from earlier work.
Data set [15] concerns TNFR1-mediated activation of NF-κB. The note with it: cited from earlier work.
For data set [16], the system named is rheumatoid arthritis. The note with it: placebo 29.2%, cited from earlier work.
For data set [17], the system named is patients with RA. To be noted: placebo 22.0%, cited from earlier work.
The conditions of data set [18]: cited from earlier work. This is another data set of the same source.
Data set [19] deals with type 1 diabetes. To be noted: cited from earlier work.

Turning to `Nc1ncnc2c1ncn2[C@@H]1O[C@H](COP(=O)(O)OP(=O)(O)OP(=O)(O)O)[C@@H](O)[C@H]1O` [ATP], the “released from the hydrogel” value in [1] is “approx. 60%”. Further, the solubility in ethanol result in data set [2] (25° C.) is recorded as “less than 1 mg/ml”. Also, the “concentration effecting maximal migration of phagocytes” value in data set [3] is reported as “about 100 nM”.
Consider `C[C@@H]1C[C@H]2[C@@H]3CCC4=CC(=O)C=C[C@]4(C)[C@@]3(F)[C@@H](O)C[C@]2(C)[C@@]1(O)C(=O)COP(=O)(O)O` [DexP, dexamethasone sodium phosphate], for which the “hydrogel-embedded DexP released” value in [4] (after 2 days) is reported as 80-90%; in data set [4] (within the first 6 hours), 30-50%.
On to `O=c1ccn([C@@H]2O[C@H](COP(=O)(O)OP(=O)(O)OP(=O)(O)O)[C@@H](O)[C@H]2O)c(=O)[nH]1` [UTP], for which the “released from the hydrogel” value in data set [1] is “approx. 60%”. In addition, the “concentration effecting maximal migration of phagocytes” value in data set [3] is “about 100 nM”.
As to `C=C1/C(=C\C=C2/CCC[C@]3(C)[C@@H]([C@H](C)CCCC(C)C)CC[C@@H]23)C[C@@H](O)C[C@@H]1O` [alfacalcidiol], the “patients with improvement of disease activity” value in data set [5] (2 pg/day for 3 months) is listed as 89%. Besides, the “patients going into remission” value in data set [5] (for 3 months) is 45%.
Regarding `C=C1CC[C@H](O)C/C1=C/C=C1\CCC[C@]2(C)[C@@H]([C@H](C)CCCC(C)(C)O)CC[C@@H]12` [calcidiol, 25-hydroxyvitamin D3], the “plasma concentrations tolerated with normo-calcemia” value in data set [6] was 250 to 1000 nM. In addition, in data set [7] (Jones (2008)), the “plasma concentration that can produce vitamin D toxicity” value was “above 0.75 μM; also recorded: approx. 300 ng/ml”. Moreover, the “calcidiol level at which toxicity occurs” value in data set [7] (Shephard and DeLuca (1980)) is ≥ 500 ng/ml and approx. 1.25 μM.
Turning to `C=C1/C(=C\C=C2/CCC[C@]3(C)[C@@H]([C@H](C)/C=C/[C@@H](O)C4CC4)CC[C@@H]23)C[C@@H](O)C[C@@H]1O` [calcipotriol], the “rate of clearance, times higher than for calcitriol” value in data set [8] (rat, in vivo) is “approximately 140 times”. The “half-life in circulation (serum half-life)” value in data set [8] (rats) is on record as 4 min. Also, the “effect on calcium metabolism, times less than calcitriol” value in data set [9] is recorded as 100-200 times. In addition, in data set [10], the “single s.c. dose up to which no death occurred” value is recorded as no more than 540 μg/kg body weight. Further, the “applied dose absorbed systemically” value in [11] (ointment applied to normal skin) is given as roughly 5%; in [11] (ointment applied topically to psoriasis plaques), “approximately 6%”.
As to `C=C1/C(=C\C=C2/CCC[C@]3(C)[C@@H]([C@H](C)CCCC(C)(C)O)CC[C@@H]23)C[C@@H](O)C[C@@H]1O` [calcitriol, 1α,25-dihydroxyvitamin D3], the “single oral dose relatively well tolerated (only grade 1 to 2 adverse events)” value in [12] was “up to 165 μg”. Besides, the “solubility in a 1:5 solution of ethanol:PBS” value in data set [2] (1:5 ethanol:PBS, pH 7.2) is on record as “approx. 0.15 mg/ml”. In addition, the “dose that can be administered as a single bolus i.p. injection” value in [13] (in 0.2 ml of normal saline) is “up to 500 ng/mouse”. Moreover, the “dose above which mice can become hypercalcemic on day 2 or day 3” value in [13] (single bolus i.p.) was “higher than 750 ng/mouse”. The “treated mice in which appearance of paralysis was prevented” value in data set [14] is on record as 70%.
Regarding `C[C@@H]1CCN(C(=O)CC#N)C[C@@H]1N(C)c1ncnc2[nH]ccc12` [free base of tofacitinib, tofacitinib], the “solubility in DMSO” value in data set [2] (DMSO) is 100 mg/mL (≈ 320 mM). Moreover, the solubility in ethanol in [2] was 100 mg/mL (≈ 320 mM). The “maximum solubility in plain water” value in data set [2] (plain water, estimated) was 10-20 μM and 3.12-6.24 μg/ml.
For `O=C([O-])c1ccccc1O.[Na+]` [sodium salicylate], the “dose required for inhibition of TNFR1-mediated activation of NF-κB” value in data set [15] was 10 to 20 mM.
For the molecule `C[C@@H]1CCN(C(=O)CC#N)C[C@@H]1N(C)c1ncnc2[nH]ccc12` [tofacitinib], the “ACR20 response rate by week 6” value in data set [16] (5 mg twice daily) is recorded as 70.5%; in data set [16] (15 mg twice daily), 81.2%; in data set [16] (30 mg twice daily), 76.8%. In addition, the “ACR20 response at week 12” value in data set [17] (3 mg orally twice a day) was 39.2%; in [17] (5 mg orally twice a day), 59.2%; in [17] (10 mg orally twice a day) it was 70.5%; in data set [17] (15 mg orally twice a day), 71.9%. Besides, the in vivo half-life in [18] is 2 to 3 h.
For the molecule vitamin D, the entries for the “relative risk of type 1 diabetes over the subsequent 30 years” value in data set [19] (doses of exactly 50 μg/day) and in data set [19] (doses of over 50 μg/day (2000 IU/d) during infancy) were 0.22 and 0.14, respectively.
